Results taken from patent US20100285087A1, “SINGLE PHENOTHIAZINE ENANTIOMERS AS AGENTS FOR THE PREVENTION OF BONE LOSS” (The University Of Texas, priority 2003, published 2010).
pIC50: −log10 of the molar value. Like-named read-outs stand apart in the source and are kept apart here.

Tests used:
[1] = biological target: T1, H1 receptor (Homo sapiens, UniProt P35367); assay: Histamine-stimulated IL-6 production in HUVEC cells (RT-PCR); assay type: cell-based; conditions: for Anti-histamine activity (IL-6 production assay), in words: 10^−5 M; for Histamine-stimulated IL-6 production reduced to fraction of that observed with histamine stimulation: ethopropazine concentration 10^−4 M
T1 construct: endogenous in cells; host or cells: HUVEC
T1 sequence (P35367 whole entry): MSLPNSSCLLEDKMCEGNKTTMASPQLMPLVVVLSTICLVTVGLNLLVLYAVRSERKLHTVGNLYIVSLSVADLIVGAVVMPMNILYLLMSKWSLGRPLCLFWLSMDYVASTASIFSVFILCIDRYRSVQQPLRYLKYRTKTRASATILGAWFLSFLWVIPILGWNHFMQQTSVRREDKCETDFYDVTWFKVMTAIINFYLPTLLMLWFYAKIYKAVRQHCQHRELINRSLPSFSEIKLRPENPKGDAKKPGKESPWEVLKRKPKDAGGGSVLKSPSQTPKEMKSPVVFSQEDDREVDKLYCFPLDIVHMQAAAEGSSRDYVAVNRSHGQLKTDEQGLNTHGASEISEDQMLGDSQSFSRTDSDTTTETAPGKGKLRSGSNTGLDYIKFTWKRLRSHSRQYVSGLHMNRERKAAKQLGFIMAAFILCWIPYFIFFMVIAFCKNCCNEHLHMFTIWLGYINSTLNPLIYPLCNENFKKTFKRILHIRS
Experimental: In the present studies, HUVEC cells were plated and grown to confluence in 6-well plates. […] The total RNA was isolated using Tri-reagent and subjected to reverse transcription polymerase chain reaction (RT-PCR™) analysis of IL-6 production using semi-quantitative analysis against HPRT expression (control gene).

[2] = tested on: ovariectomized rats (OVX); conditions: OVX + PROM rats, cited from earlier work
[3] = post-menopausal women, 50 mg/day promethazine associated with estrogens; cited from earlier work
[4] = Cytotoxicity testing of promethazine enantiomers; assay type: cell-based
[5] = tested on: osteoclasts; assay: CalciFluor assay (OsteoAssay): calcium released by osteoclast-mediated resorptive activity; assay type: cell-based
Text: A CalciFluor assay is used to measure the calcium that is released as a result of osteoclast-mediated resorptive activity. The first run of this assay looked at three new inventive compounds as well as establishing the data on the internal controls, (+/−)-promethazine and Alendronate (bis-phosphonate). The preliminary data on standards and inventive analogs is provided in Table 3, some general SAR (structure-activity relationships) trends are apparent.
The assay is optimized and dose-response data is generated on the Alendronate and Promethazine controls.

[6] = tested on: osteoclasts; assay: Osteoclast resorption assay on mammoth tusk slices; assay type: cell-based
Experimental: During this time, osteoclasts mature and degrade bone matrix. At the end of the incubation period, cells are removed, the specimen examined by SEM and the absorption area/slice is quantitated versus control (untreated) slices.

[7] = tested on: osteoclasts; conditions: peak of resorption (4 days), n = 8; cited from earlier work
[8] = first run, preliminary data, read-out: OsteoAssay IC50

Structure (SMILES): CCN(CC)C(C)CN1c2ccccc2Sc2ccccc21 (racemic) [Ethopropazine racemate, ethopropazine]
- Anti-histamine activity (IL-6 production assay), in words [1]: so effective that resolution of the more active enantiomer could not be determined
- Histamine-stimulated IL-6 production reduced to fraction of that observed with histamine stimulation [1]: approximately one fifth

Structure (SMILES): CC(CN1c2ccccc2Sc2ccccc21)N(C)C (racemic) [Promethazine racemate, promethazine]
- Vertebra mg ([2]; 5th lumbar vertebra): 253 ± 24 mg
- Vertebra mm ([2]; 5th lumbar vertebra): 6.3 ± 0.3 mm
- Cn-BV-TV (femur cancellous bone volume) [2]: 12.5 ± 5.6%
- F-BMC (femur bone mineral content) [2]: 336 ± 30 mg
- F-BMC/BW [2]: 1.06 ± 0.06 mg/g
- F-BMD (femur bone mineral density) [2]: 125 ± 14 mg/cm^2
- Femur mg [2]: 716 ± 38 mg
- Femur mm [2]: 34.5 ± 0.7 mm
- Tb-N (trabecular number) [2]: 2.1 ± 0.7 mm^−1
- Tb-Sp (trabecular separation) [2]: 477 ± 215 μm
- Tb-Th (trabecular thickness) [2]: 57.5 ± 7.3 μm
- V-BMC (5th lumbar vertebral bone mineral content) [2]: 100 ± 10 mg
- V-BMD (5th lumbar vertebral bone mineral density) [2]: 108 ± 6 mg/cm^2
- Z score F-BMC [2]: −1.7 ± 0.9
- Annual gain in spinal bone mass [3]: 3%

Structure (SMILES): CC(CN(C)C)CN1c2ccccc2Sc2ccccc21 (racemic) [trimeprazine racemate, trimeprazine]
- Anti-histamine activity (IL-6 production assay), in words [1]: so effective that resolution of the more active enantiomer could not be determined

Structure (SMILES): CCN(CC)C(C)CN1c2ccccc2Sc2ccccc21.Cl (single isomer, unassigned) [ethopropazine (+) enantiomer]
- Anti-histamine activity (IL-6 production assay), in words [1]: so effective that resolution of the more active enantiomer could not be determined
- Histamine-stimulated IL-6 production reduced to fraction of that observed with histamine stimulation [1]: approximately two fifths

Structure (SMILES): CCN(CC)C(C)CN1c2ccccc2Sc2ccccc21.Cl (single isomer, unassigned) [ethopropazine (−) enantiomer]
- Effectiveness relative to the (+) enantiomer (IL-6 reduction) ([1]; ethopropazine): four times
- Effectiveness relative to the racemate (IL-6 reduction) ([1]; ethopropazine): approximately twice
- Histamine-stimulated IL-6 production reduced to fraction of that observed with histamine stimulation [1]: one tenth

Structure (SMILES): CC(CN(C)C)CN1c2ccccc2Sc2ccccc21 (single isomer, unassigned) [trimeprazine (+) enantiomer]
- Anti-histamine activity (IL-6 production assay), in words [1]: so effective that resolution of the more active enantiomer could not be determined

Structure (SMILES): C[C@H](CN1c2ccccc2Sc2ccccc21)N(C)C [(+)-PMZ, (R)-N,N-dimethyl-1-(10H-phenothiazin-10-yl)propan-2-amine]
- Cytotoxicity compared to the racemic mixture [4]: did not have any significant increase in cytotoxicity
- pIC50 [5, 8]: > 6.00
- Concentration needed for 90% inhibition of bone resorption compared with the racemate [6]: two orders of magnitude lower
- Efficacy for osteoclast inhibition compared with the racemate and the (−) enantiomer [6]: threefold higher
- inhibition at 0.1 µM ([6]; Osteoclast, 336 h, 10^−7 M, 14 days, read-out: Inhibition of bone resorption): 90%

Structure (SMILES): C[C@H](CN1c2ccccc2Sc2ccc(C(F)(F)F)cc21)N(C)C [(R)-N,N-dimethyl-1-(2-(trifluoromethyl)-10H-phenothiazin-10-yl)propan-2-amine]
- pIC50 [5, 8]: < 5.00

Structure (SMILES): C[C@H](CN1c2ccccc2Sc2ccc(Cl)cc21)N(C)C [(R)-l-(2-chloro-10H-phenothiazin-10-yl)-N,N-dimethylpropan-2-amine]
- pIC50 [5, 8]: < 5.00

Structure (SMILES): COc1ccc2c(c1)N(C[C@@H](C)N(C)C)c1ccccc1S2 [(R)-l-(2-methoxy-10H-phenothiazin-10-yl)-N,N-dimethylpropan-2-amine]
- pIC50 [5, 8]: > 6.00

Structure (SMILES): NCCCC(O)(P(=O)(O)O)P(=O)(O)O [Alendronate, alendronate]
- pIC50 ([5]; optimized assay, dose response, FIG. 13, read-out: IC50, calcium release by osteoclast-mediated resorption): ~5.00

Structure (SMILES): CN/C(=N/CCSCc1nc[nH]c1C)NC#N [Cimetidine, cimetidine]
- Active Osteoclasts (on-bone cells) [7]: 6.2 ± 0.8
- Inactive Osteoclasts (off-bone cells) [7]: 3.1 ± 0.7
- OBIT (OBI, mean interface of the active cells with the bone surface) [7]: 24.7 ± .9
- RS [7]: 14.4 ± 2.0
- Total Osteoclasts [7]: 9.4 ± 1.4

Structure (SMILES): COc1ccc(CN(CCN(C)C)c2ccccn2)cc1 [Mepyramine, mepyramine]
- Active Osteoclasts (on-bone cells) [7]: 9.6 ± 0.7
- Inactive Osteoclasts (off-bone cells) [7]: 5.7 ± 0.8
- OBIT (OBI, mean interface of the active cells with the bone surface) [7]: 18.4 ± 0.8
- RS [7]: 17.6 ± 1.3
- Total Osteoclasts [7]: 15.3 ± 1.5

Structure (SMILES): C[C@@H](CN1c2ccccc2Sc2ccccc21)N(C)C [promethazine (−) enantiomer, (S)-N,N-dimethyl-1-(10H-phenothiazin-10-yl)propan-2-amine]
- Cytotoxicity compared to the racemic mixture [4]: the same was also true
